Source: patent publication EP0326418A1, “GRF analogs” (THE UPJOHN COMPANY, priority 1988, dated 1989)
Where two headings read alike, the source gives them in different places. Where a SMILES comes first, the peptide text is derived from it. Where no end group is shown, it is not given here. [ ]: non-standard residue; d: D form. The star is where a group is joined. Desaminotyrosyl = O=C(CCc1ccc(O)cc1)*; Cya = N[C@@H](CS(=O)(=O)O)C(=O)O

Experiments:
[1] = system: bovine anterior pituitary cell culture; type: cell-based; conditions: for potency (in words): summary of the bovine pituitary cell culture assays
meal-fed Holstein steers = test: serum growth hormone (GH) response after intravenous injection in steers (Procedure B); type: in vivo; conditions: for serum growth hormone (GH) response, difference from Leu²⁷ bGRF(1-32)NH₂: compared with Leu²⁷ bGRF(1-32)NH₂; for area under the GH response curve: in comparison to bGRF(1-44)NH₂ (100%), first study; for relative growth hormone areas: in comparison to the standard bGRF(1-44)NH₂ (Area 100%), procedure B, second study
Excerpt: The synthetic peptides prepared in Examples 1, 2 and 3 (Compounds 1, 2 and 3 respectively), bGRF(1-44)NH2 and […] bGRF(1-32)NH2 were also given to meal-fed Holstein steers by intravenous injection (Procedure B) and the serum growth hormone (GH) response evaluated. […] In comparison to bGRF(1-44)NH2 (100%), the area under the GH response curve was 122% for […] bGRF(1-32)NH2, 100% for Compound #1, 106% for Compound #2, and 111% for Compound #3. Holstein steers (265 +/- 5kg) were housed in individual stalls 18-20°C) and exposed to 16h light:8h darkness (lights on at 0400h). Steers are meal-fed once daily at 1000h and trained to consume their total daily feed intake in 2 h. The diet consisted of rolled corn plus a mineral/vitamin premix and alfalfa hay cubes fed at 160% maintenance energy requirements on a bodyweight basis. Steers gained approximately 0.75 kg/h/d. In a 5 x […] Latin Square design 10 steers were assigned randomly to receive the following treatments. (a) bGRF(1-44)NH2, (b) […] bGRF(1-32)NH2, (c) Compound #3, (d) Compound #1, and (e) Compound #2. The GRFs were dissolves in saline (10μg/ml) and administered at 3nM/100 kg bodyweight as single iv injection at 0800 h, 2 h between feeding. A cannula was inserted into a jugular vein at least one day before treatment. Blood (6 ml) was collected at 20-min interval from 40 min before until 120 min after injection with additional samples collected at 5, 10 and 15 min after injection. Serum obtained from the samples was assayed from GH concentration. The number of steers responding to injection fo the various GRFs tested (P=0.42) ranged from 9 of 10 to 10 of 10 depending on the treatment. Using procedure B, compounds were tested for growth hormone release in steers. In comparison to the standard bGRF(1-44)NH2 (Area 100%), the test compounds gave the following relative growth hormone areas: Compound 4, 233%; compound 5, 140%; compound 6, 160%; compound 7, 126%; compound 8, 307%; compound 9, 260%; and compound 11, 173%.

[2] = proteolytic stability in bovine plasma (HPLC, modified Frohman method); conditions: for remaining at 1 h: bovine plasma; for proteolytic stability in bovine plasma (in words): summary
[3] = first assay, potency as a fraction of bGRF(1-44)NH₂
[4] = subsequent assay, potency as a fraction of bGRF(1-44)NH₂
[5] = 3nM/100 kg bodyweight, single iv injection

Molecule | remaining at 1 h [2] [%] | proteolytic stability in bovine plasma (in words) [2] | the potency of bGRF(1-44)NH₂ [1, 3] | the potency of bGRF(1-44)NH₂ [1, 4] | serum growth hormone (GH) response, difference from Leu²⁷ bGRF(1-32)NH₂ (meal-fed Holstein steers; [5]) | area under the GH response curve (meal-fed Holstein steers; [5]) [%] | the potency of bGRF(1-44)NH₂ [1] | relative growth hormone areas (meal-fed Holstein steers) [%] | potency (in words) [1] | serum growth hormone (GH) response, difference from bGRF(1-44)NH₂ (meal-fed Holstein steers; 3nM/100 kg bodyweight, single iv injection, compared with bGRF(1-44)NH₂)
CC[C@H](C)[C@H](NC(=O)[C@H](C)NC(=O)[C@H](CS(=O)(=O)O)NC(=O)[C@H](C)NC(=O)[C@@H](N)Cc1ccc(O)cc1)C(=O)N[C@@H](Cc1ccccc1)C(=O)N[C@H](C(=O)N[C@@H](CC(N)=O)C(=O)N[C@@H](CO)C(=O)N[C@@H](Cc1ccc(O)cc1)C(=O)N[C@@H](CCCNC(=N)N)C(=O)N[C@@H](CCCCN)C(=O)N[C@H](C(=O)N[C@@H](CC(C)C)C(=O)NCC(=O)N[C@@H](CCC(N)=O)C(=O)N[C@@H](CC(C)C)C(=O)N[C@@H](CO)C(=O)N[C@@H](C)C(=O)N[C@@H](CCCNC(=N)N)C(=O)N[C@@H](CCCCN)C(=O)N[C@@H](CC(C)C)C(=O)N[C@@H](CC(C)C)C(=O)N[C@@H](CCC(N)=O)C(=O)N[C@@H](CC(=O)O)C(=O)N[C@H](C(=O)N[C@@H](CC(C)C)C(=O)N[C@@H](CC(N)=O)C(=O)N[C@@H](CCCNC(=N)N)C(=O)N[C@@H](CCC(N)=O)C(=O)N[C@@H](CCC(N)=O)C(=O)NCC(N)=O)[C@@H](C)CC)C(C)C)[C@@H](C)O [Compound 3, Cya³, Leu ²⁷bGRF(1-32)NH₂] (H-YA[Cya]AIFTNSYRKVLGQLSARKLLQDILNRQQG-NH2) | 42 | – | 0.31 | 0.41 | No significant differences | 111 | – | – | – | –
CC[C@H](C)[C@H](NC(=O)[C@H](C)NC(=O)[C@H](CS(=O)(=O)O)NC(=O)[C@@H](C)NC(=O)[C@@H](N)Cc1ccc(O)cc1)C(=O)N[C@@H](Cc1ccccc1)C(=O)N[C@H](C(=O)N[C@@H](CC(N)=O)C(=O)N[C@@H](CO)C(=O)N[C@@H](Cc1ccc(O)cc1)C(=O)N[C@@H](CCCNC(=N)N)C(=O)N[C@@H](CCCCN)C(=O)N[C@H](C(=O)N[C@@H](CC(C)C)C(=O)NCC(=O)N[C@@H](CCC(N)=O)C(=O)N[C@@H](CC(C)C)C(=O)N[C@@H](CO)C(=O)N[C@@H](C)C(=O)N[C@@H](CCCNC(=N)N)C(=O)N[C@@H](CCCCN)C(=O)N[C@@H](CC(C)C)C(=O)N[C@@H](CC(C)C)C(=O)N[C@@H](CCC(N)=O)C(=O)N[C@@H](CC(=O)O)C(=O)N[C@H](C(=O)N[C@@H](CC(C)C)C(=O)N[C@@H](CC(N)=O)C(=O)N[C@@H](CCCNC(=N)N)C(=O)N[C@@H](CCC(N)=O)C(=O)N[C@@H](CCC(N)=O)C(=O)NCC(N)=O)[C@@H](C)CC)C(C)C)[C@@H](C)O [Compound 4, D-Ala², Cya³, Leu²⁷-bGRF(1-32)NH₂] (H-Y[dA][Cya]AIFTNSYRKVLGQLSARKLLQDILNRQQG-NH2) | 76 | – | – | – | – | – | 0.29 | 233 | – | –
CC[C@H](C)[C@H](NC(=O)[C@H](C)NC(=O)[C@H](CS(=O)(=O)O)NC(=O)[C@@H](C)NC(=O)[C@@H](N)Cc1c[nH]cn1)C(=O)N[C@@H](Cc1ccccc1)C(=O)N[C@H](C(=O)N[C@@H](CC(N)=O)C(=O)N[C@@H](CO)C(=O)N[C@@H](Cc1ccc(O)cc1)C(=O)N[C@@H](CCCNC(=N)N)C(=O)N[C@@H](CCCCN)C(=O)N[C@H](C(=O)N[C@@H](CC(C)C)C(=O)NCC(=O)N[C@@H](CCC(N)=O)C(=O)N[C@@H](CC(C)C)C(=O)N[C@@H](CO)C(=O)N[C@@H](C)C(=O)N[C@@H](CCCNC(=N)N)C(=O)N[C@@H](CCCCN)C(=O)N[C@@H](CC(C)C)C(=O)N[C@@H](CC(C)C)C(=O)N[C@@H](CCC(N)=O)C(=O)N[C@@H](CC(=O)O)C(=O)N[C@H](C(=O)N[C@@H](CC(C)C)C(=O)N[C@@H](CC(N)=O)C(=O)N[C@@H](CCCNC(=N)N)C(=O)N[C@@H](CCC(N)=O)C(=O)N[C@@H](CCC(N)=O)C(=O)NCC(N)=O)[C@@H](C)CC)C(C)C)[C@@H](C)O [Compound 7, His¹, D-Ala², Cya³, Leu²⁷-bGRF(1-32)NH₂] (H-H[dA][Cya]AIFTNSYRKVLGQLSARKLLQDILNRQQG-NH2) | 69 | – | – | – | – | – | 0.06 | 126 | – | –
CC[C@H](C)[C@H](NC(=O)[C@H](C)NC(=O)[C@H](CS(=O)(=O)O)NC(=O)[C@@H](C)NC(=O)[C@@H](N)Cc1ccc(O)cc1)C(=O)N[C@@H](Cc1ccccc1)C(=O)N[C@H](C(=O)N[C@@H](CC(N)=O)C(=O)N[C@@H](CO)C(=O)N[C@@H](Cc1ccc(O)cc1)C(=O)N[C@@H](CCCNC(=N)N)C(=O)N[C@@H](CCCCN)C(=O)N[C@H](C(=O)N[C@@H](CC(C)C)C(=O)N[C@@H](C)C(=O)N[C@@H](CCC(N)=O)C(=O)N[C@@H](CC(C)C)C(=O)N[C@@H](CO)C(=O)N[C@@H](C)C(=O)N[C@@H](CCCNC(=N)N)C(=O)N[C@@H](CCCCN)C(=O)N[C@@H](CC(C)C)C(=O)N[C@@H](CC(C)C)C(=O)N[C@@H](CCC(N)=O)C(=O)N[C@@H](CC(=O)O)C(=O)N[C@H](C(=O)N[C@@H](CC(C)C)C(=O)N[C@@H](CC(N)=O)C(=O)N[C@@H](CCCNC(=N)N)C(=O)N[C@@H](CCC(N)=O)C(=O)N[C@@H](CCC(N)=O)C(=O)NCC(N)=O)[C@@H](C)CC)C(C)C)[C@@H](C)O [Compound 8, D-Ala², Cya³, Ala¹⁵, Leu²⁷-bGRF(1-32)NH₂] (H-Y[dA][Cya]AIFTNSYRKVLAQLSARKLLQDILNRQQG-NH2) | 95 | good stability | – | – | – | – | 1.34 | 307 | high potency | –
Cya²⁵, Leu²⁷bGRF(1-32)NH₂ [Compound 1] | – | – | 0.53 | – | No significant differences | 100 | – | – | – | –

The next lines start with results.

remaining at 1 h [2] [%] | proteolytic stability in bovine plasma (in words) [2] | Molecule | the potency of bGRF(1-44)NH₂ [1, 3] | the potency of bGRF(1-44)NH₂ [1, 4] | serum growth hormone (GH) response, difference from Leu²⁷ bGRF(1-32)NH₂ (meal-fed Holstein steers; [5]) | area under the GH response curve (meal-fed Holstein steers; [5]) [%] | the potency of bGRF(1-44)NH₂ [1] | relative growth hormone areas (meal-fed Holstein steers) [%] | potency (in words) [1] | serum growth hormone (GH) response, difference from bGRF(1-44)NH₂ (meal-fed Holstein steers; 3nM/100 kg bodyweight, single iv injection, compared with bGRF(1-44)NH₂)
81 | good stability | CC[C@H](C)[C@H](NC(=O)[C@H](C)NC(=O)[C@H](CS(=O)(=O)O)NC(=O)[C@H](C)NC(=O)CCc1ccc(O)cc1)C(=O)N[C@@H](Cc1ccccc1)C(=O)N[C@H](C(=O)N[C@@H](CC(N)=O)C(=O)N[C@@H](CO)C(=O)N[C@@H](Cc1ccc(O)cc1)C(=O)N[C@@H](CCCNC(=N)N)C(=O)N[C@@H](CCCCN)C(=O)N[C@H](C(=O)N[C@@H](CC(C)C)C(=O)N[C@@H](C)C(=O)N[C@@H](CCC(N)=O)C(=O)N[C@@H](CC(C)C)C(=O)N[C@@H](CO)C(=O)N[C@@H](C)C(=O)N[C@@H](CCCNC(=N)N)C(=O)N[C@@H](CCCCN)C(=O)N[C@@H](CC(C)C)C(=O)N[C@@H](CC(C)C)C(=O)N[C@@H](CCC(N)=O)C(=O)N[C@@H](CC(=O)O)C(=O)N[C@H](C(=O)N[C@@H](CC(C)C)C(=O)N[C@@H](CC(N)=O)C(=O)N[C@@H](CCCNC(=N)N)C(=O)N[C@@H](CCC(N)=O)C(=O)N[C@@H](CCC(N)=O)C(=O)NCC(N)=O)[C@@H](C)CC)C(C)C)[C@@H](C)O [Compound 9, Desamino-Tyr¹, Cya³, Ala¹⁵, Leu²⁷-bGRF(1-32)NH₂] (Desaminotyrosyl-A[Cya]AIFTNSYRKVLAQLSARKLLQDILNRQQG-NH2) | – | 2.24 | – | – | – | 260 | high potency | –
86 | – | CC[C@H](C)[C@H](NC(=O)[C@H](C)NC(=O)[C@H](CS(=O)(=O)O)NC(=O)[C@@H](C)NC(=O)[C@@H](N)Cc1c[nH]cn1)C(=O)N[C@@H](Cc1ccccc1)C(=O)N[C@H](C(=O)N[C@@H](CC(N)=O)C(=O)N[C@@H](CO)C(=O)N[C@@H](Cc1ccc(O)cc1)C(=O)N[C@@H](CCCNC(=N)N)C(=O)N[C@@H](CCCCN)C(=O)N[C@H](C(=O)N[C@@H](CC(C)C)C(=O)N[C@@H](C)C(=O)N[C@@H](CCC(N)=O)C(=O)N[C@@H](CC(C)C)C(=O)N[C@@H](CO)C(=O)N[C@@H](C)C(=O)N[C@@H](CCCNC(=N)N)C(=O)N[C@@H](CCCCN)C(=O)N[C@@H](CC(C)C)C(=O)N[C@@H](CC(C)C)C(=O)N[C@@H](CCC(N)=O)C(=O)N[C@@H](CC(=O)O)C(=O)N[C@H](C(=O)N[C@@H](CC(C)C)C(=O)N[C@@H](CC(N)=O)C(=O)N[C@@H](CCCNC(=N)N)C(=O)N[C@@H](CCC(N)=O)C(=O)N[C@@H](CCC(N)=O)C(=O)NCC(N)=O)[C@@H](C)CC)C(C)C)[C@@H](C)O [Compound 11, His¹, D-Ala², Cya³, Ala¹⁵, Leu²⁷-bGRF(1-32)NH₂] (H-H[dA][Cya]AIFTNSYRKVLAQLSARKLLQDILNRQQG-NH2) | – | – | – | – | 0.28 | 173 | – | –
47 | – | YADAIFTNSYRKVLGQLSARKLLQDILNRQQG-NH2 [Leu²⁷ bGRF(1-32)NH₂, reference compound] | – | – | – | 122 | – | – | – | No significant differences
